ChEMBL document CHEMBL5625225, “Vinylphosphonate-based cyclic dinucleotides enhance STING-mediated cancer immunotherapy” (Eur J Med Chem, 2023)

Columns and labels:
[1] = molecular target: T1, Stimulator of interferon genes protein (Homo sapiens, UniProt Q86WV6); experiment: Agonist activity at wild type STING (unknown origin) expressed in HEK293T cells preincubated for 30 mins followed by washout and measured after 6.5 hrs by Bright-glo luciferase assay; format: cell-based
Target sequence in this assay (Q86WV6 whole entry): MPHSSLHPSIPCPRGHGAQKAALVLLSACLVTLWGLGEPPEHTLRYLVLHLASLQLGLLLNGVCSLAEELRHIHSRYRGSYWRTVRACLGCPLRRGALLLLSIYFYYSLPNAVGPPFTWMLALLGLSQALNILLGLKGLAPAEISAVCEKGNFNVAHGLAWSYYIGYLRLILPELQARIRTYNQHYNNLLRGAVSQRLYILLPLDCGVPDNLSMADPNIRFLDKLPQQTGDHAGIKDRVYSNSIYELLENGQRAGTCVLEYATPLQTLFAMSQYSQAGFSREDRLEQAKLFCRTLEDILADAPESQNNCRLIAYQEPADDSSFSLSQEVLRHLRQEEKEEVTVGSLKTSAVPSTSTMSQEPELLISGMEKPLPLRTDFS

[2] = molecular target: T1, Stimulator of interferon genes protein; experiment: Agonist activity at wild type STING (unknown origin) expressed in HEK293T cells measured after 7 hrs by Bright-glo luciferase assay; format: cell-based
Target sequence in this assay (Q86WV6 whole entry): as above

[3] = Induction of cytokine production in human PBMC cells assessed as TNF-alpha level incubated for 60 mins followed by washout and measured after 15 hrs; format: functional, cell-based
[4] = Stability in human plasma assessed as half life at 5 uM measured upto 120 mins by UPLC/MS analysis; format: ADME, cell-free
[5] = Induction of cytokine production in human PBMC cells assessed as IFN-gamma level incubated for 60 mins followed by washout and measured after 15 hrs; format: functional, cell-based
[6] = Induction of cytokine production in human PBMC cells assessed as IFN-alpha level incubated for 60 mins followed by washout and measured after 15 hrs; format: functional, cell-based
[7] = Stability in mouse plasma assessed as half life at 5 uM measured upto 120 mins by UPLC/MS analysis; format: ADME, cell-free
[8] = molecular target: Stimulator of interferon genes protein (Homo sapiens, UniProt Q86WV6, G230A/R293Q/R71H); experiment: Agonist activity at STING R71H/G230A/R293Q mutant (unknown origin) expressed in digitonin -permeabilized HEK293T cells preincubated for 30 mins followed by washout and measured after 5 hrs by Bright-glo luciferase assay; format: cell-based
Chain of Stimulator of interferon genes protein (Homo sapiens, UniProt Q86WV6, G230A/R293Q/R71H) (Q86WV6 whole entry R71H/G230A/R293Q): as the sequence (Q86WV6 whole entry) above, with R71H, G230A, R293Q counted along it

[9] = Agonist activity at STING R232H mutant (unknown origin) expressed in digitonin -permeabilized HEK293T cells preincubated for 30 mins followed by washout and measured after 5 hrs by Bright-glo luciferase assay; format: cell-based; settings: Homo sapiens, HEK-293T
[10] = molecular target: Stimulator of interferon genes protein (Homo sapiens, UniProt Q86WV6, G230A/R293Q); experiment: Agonist activity at STING G230A/R293Q mutant (unknown origin) expressed in digitonin -permeabilized HEK293T cells preincubated for 30 mins followed by washout and measured after 5 hrs by Bright-glo luciferase assay; format: cell-based
Chain of Stimulator of interferon genes protein (Homo sapiens, UniProt Q86WV6, G230A/R293Q) (Q86WV6 whole entry G230A/R293Q): as the sequence (Q86WV6 whole entry) above, with G230A, R293Q counted along it

[11] = molecular target: Stimulator of interferon genes protein (Homo sapiens, UniProt Q86WV6, R293Q); experiment: Agonist activity at STING R293Q mutant (unknown origin) expressed in digitonin -permeabilized HEK293T cells preincubated for 30 mins followed by washout and measured after 5 hrs by Bright-glo luciferase assay; format: cell-based
Chain of Stimulator of interferon genes protein (Homo sapiens, UniProt Q86WV6, R293Q) (Q86WV6 whole entry R293Q): as the sequence (Q86WV6 whole entry) above, with R293Q counted along it

[12] = molecular target: T1, Stimulator of interferon genes protein; experiment: Agonist activity at STING R232 mutant (unknown origin) expressed in digitonin -permeabilized HEK293T cells preincubated for 30 mins followed by washout and measured after 5 hrs by Bright-glo luciferase assay; format: cell-based
Target sequence in this assay (Q86WV6 whole entry, looked up, stated change not applied): as the sequence (Q86WV6 whole entry) above

[13] = tested on: Stimulator of interferon genes protein (Homo sapiens), Q86WV6 [UNDEFINED MUTATION]; settings: filed as agonist
Chain of Stimulator of interferon genes protein (Homo sapiens), Q86WV6 [UNDEFINED MUTATION] (Q86WV6 whole entry, looked up, stated change not applied): as the sequence (Q86WV6 whole entry) above
Description: Binding affinity to STING R232 mutant (unknown origin) assessed as change in melting temperature by differential scanning fluorimetry analysis

[14] = tested on: Stimulator of interferon genes protein (Homo sapiens), Q86WV6 [G230A,R293Q]; settings: filed as agonist
Chain of Stimulator of interferon genes protein (Homo sapiens), Q86WV6 [G230A,R293Q] (Q86WV6 whole entry G230A/R293Q): as the sequence (Q86WV6 whole entry) above, with G230A, R293Q counted along it
Description: Binding affinity to STING G230A/R293Q mutant (unknown origin) assessed as change in melting temperature by differential scanning fluorimetry analysis

Row | SMILES | EC50 [1] [nM] | EC50 [2] [nM] | EC50 [8] [nM] | EC50 [9] [nM] | EC50 [10] [nM] | EC50 [11] [nM] | EC50 [12] [nM] | ΔTm [13] [°C] | ΔTm [14] [°C] | other results
1 | CC(C)OC(=O)OCOP1(=O)/C=C/[C@H]2O[C@@H](n3cnc4c(N)ncnc43)[C@H](F)[C@@H]2OP(=O)(OCOC(=O)OC(C)C)OC[C@H]2O[C@@H](n3cnc4c(N)ncnc43)[C@H](F)[C@@H]2O1 (stereo in doubt; 12A) | 7950 | 9500 |  |  |  |  |  |  |  | 
2 | CC(C)(C)C(=O)OCOP1(=O)/C=C/[C@H]2O[C@@H](n3cnc4c(N)ncnc43)[C@H](F)[C@@H]2OP(=O)(OCOC(=O)C(C)(C)C)OC[C@H]2O[C@@H](n3cnc4c(N)ncnc43)[C@H](F)[C@@H]2O1 (stereo in doubt; 11C) | 10 | 12 |  |  |  |  |  |  |  | EC50 ([3]; pbmc): 40 nM; half-life at 5 µM [4]: 49 min; EC50 ([5]; pbmc): 50 nM; EC50 ([6]; pbmc): 60 nM; half-life at 5 µM [7]: 4 min
3 | Nc1ncnc2c1ncn2[C@@H]1O[C@@H]2/C=C/P(=O)(O)O[C@H]3C[C@H](n4cnc5c(N)ncnc54)O[C@@H]3COP(=O)(O)O[C@H]2[C@H]1F | > 200000 | 71700 | 270 | > 45000 | 390 | 1500 | 280 | 2.7 | 8.9 | 
4 | CCC(C)(C)C(=O)OCOP1(=O)/C=C/[C@H]2O[C@@H](n3cnc4c(N)ncnc43)[C@H](F)[C@@H]2OP(=O)(OCOC(=O)C(C)(C)CC)OC[C@H]2O[C@@H](n3cnc4c(N)ncnc43)[C@H](F)[C@@H]2O1 (stereo in doubt; 13C) | 35 | 7 |  |  |  |  |  |  |  | EC50 ([3]; Homo sapiens, PBMC): 120 nM; half-life at 5 µM [4]: 86 min; EC50 ([5]; Homo sapiens, PBMC): 20 nM; EC50 ([6]; Homo sapiens, PBMC): 60 nM; half-life at 5 µM [7]: 4 min
5 | CC(C)(C)C(=O)OCOP1(=O)/C=C/[C@H]2O[C@@H](n3cnc4c(N)ncnc43)[C@H](F)[C@@H]2OP(=O)(OCOC(=O)C(C)(C)C)OC[C@H]2O[C@@H](n3cnc4c(N)ncnc43)[C@H](F)[C@@H]2O1 (stereo in doubt; 11A) | 130 | 60 |  |  |  |  |  |  |  | 
6 | CC(C)(C)C(=O)OCOP1(=O)/C=C/[C@H]2O[C@@H](n3cnc4c(N)ncnc43)C[C@@H]2OP(=O)(OCOC(=O)C(C)(C)C)OC[C@H]2O[C@@H](n3cnc4c(N)ncnc43)[C@H](F)[C@@H]2O1 (stereo in doubt; 24C) | 210 | 260 |  |  |  |  |  |  |  | 
7 | CC(C)(C)C(=O)OCOP1(=O)/C=C/[C@H]2O[C@@H](n3cnc4c(N)ncnc43)C[C@@H]2OP(=O)(OCOC(=O)C(C)(C)C)OC[C@H]2O[C@@H](n3cnc4c(N)ncnc43)[C@H](F)[C@@H]2O1 (stereo in doubt; 24A) | 9930 | 12100 |  |  |  |  |  |  |  | 
8 | CCCCCCCC(=O)OCOP1(=O)/C=C/[C@H]2O[C@@H](n3cnc4c(N)ncnc43)[C@H](F)[C@@H]2OP(=O)(OCOC(=O)CCCCCCC)OC[C@H]2O[C@@H](n3cnc4c(N)ncnc43)[C@H](F)[C@@H]2O1 (stereo in doubt; 15C) | 5 | 3 |  |  |  |  |  |  |  | EC50 ([3]; pbmc): 280 nM; half-life at 5 µM [4]: 19 min; EC50 ([5]; pbmc): 170 nM; EC50 ([6]; pbmc): 120 nM; half-life at 5 µM [7]: 3 min
9 | Nc1nc2c(ncn2[C@H]2C[C@@H]3OP(=O)(O)/C=C/[C@H]4O[C@@H](n5cnc6c(N)ncnc65)[C@H](F)[C@@H]4OP(=O)(O)OC[C@H]3O2)c(=O)[nH]1 |  |  | 140 | 9500 | 130 | 2950 | 120 | 5.2 | 11.4 | 
10 | Nc1ncnc2c1ncn2[C@@H]1O[C@@H]2COP(=O)(O)O[C@H]3C[C@H](n4cnc5c(N)ncnc54)O[C@@H]3/C=C/P(=O)(O)O[C@H]2[C@H]1F |  |  | 280 | > 45000 | 400 | 6570 | 750 | 2.3 | 8.2 | 
11 | CC(C)(C)C(=O)OCOP1(=O)/C=C/[C@H]2O[C@@H](n3cnc4c(N)ncnc43)[C@H](F)[C@@H]2OP(=O)(OCOC(=O)C(C)(C)C)OC[C@H]2O[C@@H](n3cnc4c(N)ncnc43)[C@H](F)[C@@H]2O1 (stereo in doubt; 11B) | 30 | 22 |  |  |  |  |  |  |  | EC50 ([3]; pbmc): 330 nM; EC50 ([5]; pbmc): 750 nM; EC50 ([6]; pbmc): 350 nM
12 | CC1(C(=O)OCOP2(=O)/C=C/[C@H]3O[C@@H](n4cnc5c(N)ncnc54)[C@H](F)[C@@H]3OP(=O)(OCOC(=O)C3(C)CCCCC3)OC[C@H]3O[C@@H](n4cnc5c(N)ncnc54)[C@H](F)[C@@H]3O2)CCCCC1 (stereo in doubt; 14A) | 500 | 250 |  |  |  |  |  |  |  | 
13 | CCC(C)(C)C(=O)OCOP1(=O)/C=C/[C@H]2O[C@@H](n3cnc4c(N)ncnc43)[C@H](F)[C@@H]2OP(=O)(OCOC(=O)C(C)(C)CC)OC[C@H]2O[C@@H](n3cnc4c(N)ncnc43)[C@H](F)[C@@H]2O1 (stereo in doubt; 13B) | 35 | 14 |  |  |  |  |  |  |  | 
14 | Nc1nc2c(ncn2[C@@H]2O[C@@H]3/C=C/P(=O)(O)O[C@H]4[C@@H](F)[C@H](n5cnc6c(=O)[nH]c(N)nc65)O[C@@H]4COP(=O)(O)O[C@H]3[C@H]2F)c(=O)[nH]1 |  |  | 950 | 3690 | 950 | 8650 | 500 | 3.4 | 8.8 | 
15 | CC1(C(=O)OCOP2(=O)/C=C/[C@H]3O[C@@H](n4cnc5c(N)ncnc54)[C@H](F)[C@@H]3OP(=O)(OCOC(=O)C3(C)CCCCC3)OC[C@H]3O[C@@H](n4cnc5c(N)ncnc54)[C@H](F)[C@@H]3O2)CCCCC1 (stereo in doubt; 14B) | 225 | 80 |  |  |  |  |  |  |  | EC50 ([3]; pbmc): 140 nM; EC50 ([5]; pbmc): 250 nM; EC50 ([6]; pbmc): 300 nM
16 | CC(C)(C)C(=O)OCOP1(=O)/C=C/[C@H]2O[C@@H](n3cnc4c(N)ncnc43)C[C@@H]2OP(=O)(OCOC(=O)C(C)(C)C)OC[C@H]2O[C@@H](n3cnc4c(N)ncnc43)[C@H](F)[C@@H]2O1 (stereo in doubt; 24B) | 550 | 675 |  |  |  |  |  |  |  | 
17 | Nc1nc2c(ncn2[C@@H]2O[C@@H]3/C=C/P(=O)(O)O[C@H]4[C@@H](F)[C@H](n5cnc6c(N)ncnc65)O[C@@H]4COP(=O)(O)O[C@H]3[C@H]2F)c(=O)[nH]1 |  |  | 60 | 320 | 80 | 460 | 20 | 9.4 | 15.2 | 
18 | CCCCCCCC(=O)OCOP1(=O)/C=C/[C@H]2O[C@@H](n3cnc4c(N)ncnc43)[C@H](F)[C@@H]2OP(=O)(OCOC(=O)CCCCCCC)OC[C@H]2O[C@@H](n3cnc4c(N)ncnc43)[C@H](F)[C@@H]2O1 (stereo in doubt; 15A) | 350 | 20 |  |  |  |  |  |  |  | 
19 | CCCCCCCC(=O)OCOP1(=O)/C=C/[C@H]2O[C@@H](n3cnc4c(N)ncnc43)[C@H](F)[C@@H]2OP(=O)(OCOC(=O)CCCCCCC)OC[C@H]2O[C@@H](n3cnc4c(N)ncnc43)[C@H](F)[C@@H]2O1 (stereo in doubt; 15B) | 4 | 3 |  |  |  |  |  |  |  | EC50 ([3]; pbmc): 70 nM; EC50 ([5]; pbmc): 60 nM; EC50 ([6]; Homo sapiens, PBMC): 80 nM
20 | Nc1nc2c(ncn2[C@H]2C[C@@H]3OP(=O)(O)OC[C@H]4O[C@@H](n5cnc6c(N)ncnc65)C[C@@H]4OP(=O)(O)/C=C/[C@H]3O2)c(=O)[nH]1 |  |  | 440 | > 45000 | 210 | > 45000 | 780 | 1.9 | 8.6 | 
21 | Nc1nc2c(ncn2[C@H]2C[C@@H]3OP(=O)(O)/C=C/[C@H]4O[C@@H](n5cnc6c(N)ncnc65)C[C@@H]4OP(=O)(O)OC[C@H]3O2)c(=O)[nH]1 |  |  | 240 | > 45000 | 390 | > 45000 | 10800 | 0.9 | 4.5 | 
22 | CC(C)OC(=O)OCOP1(=O)/C=C/[C@H]2O[C@@H](n3cnc4c(N)ncnc43)[C@H](F)[C@@H]2OP(=O)(OCOC(=O)OC(C)C)OC[C@H]2O[C@@H](n3cnc4c(N)ncnc43)[C@H](F)[C@@H]2O1 (stereo in doubt; 12C) | 250 | 70 |  |  |  |  |  |  |  | EC50 ([3]; Homo sapiens, PBMC): 250 nM; EC50 ([5]; Homo sapiens, PBMC): 1300 nM; EC50 ([6]; Homo sapiens, PBMC): 600 nM
23 | CC(C)OC(=O)OCOP1(=O)/C=C/[C@H]2O[C@@H](n3cnc4c(N)ncnc43)[C@H](F)[C@@H]2OP(=O)(OCOC(=O)OC(C)C)OC[C@H]2O[C@@H](n3cnc4c(N)ncnc43)[C@H](F)[C@@H]2O1 (stereo in doubt; 12B) | 2630 | 1250 |  |  |  |  |  |  |  | 
24 | Nc1nc2c(ncn2[C@@H]2O[C@@H]3COP(=O)(O)O[C@H]4C[C@H](n5cnc6c(N)ncnc65)O[C@@H]4/C=C/P(=O)(O)O[C@H]3[C@H]2F)c(=O)[nH]1 |  |  | 350 | 25500 | 290 | 4150 | 700 | 4.8 | 11.9 | 
25 | CCC(C)(C)C(=O)OCOP1(=O)/C=C/[C@H]2O[C@@H](n3cnc4c(N)ncnc43)[C@H](F)[C@@H]2OP(=O)(OCOC(=O)C(C)(C)CC)OC[C@H]2O[C@@H](n3cnc4c(N)ncnc43)[C@H](F)[C@@H]2O1 (stereo in doubt; 13A) | 450 | 150 |  |  |  |  |  |  |  | 
